Key:
[1] = biological target: T1, yeast 20S proteasome (Saccharomyces cerevisiae, UniProt P25043+P30656+P38624); assay: cocrystallization with 20S proteasome, X-ray crystallography; format: binding; settings: crystal structure of complex
T1 construct: each was cocrystallized with the yeast 20S proteasome; host or cells: yeast
Procedure: To elucidate the binding mode of syringolin. A and glidobactin A to the proteasome, each was cocrystallized with the yeast 20S proteasome. Crystals of the 20S proteasome were grown in hanging drops at 24° C. as described (Grail et al. 1997. Nature 386:463-471; Groll and Huber. 2005. Methods Enzymol. 398:329-336, each which is incorporated herein by reference in its entirety) and incubated for 60 min with syringolin A or glidobactin A. The protein concentration used for crystallization was 40 mg/ml in Tris-HCI (10 mM, pH 7.5) and EDTA (1 mM). The drops contained 3 μL of protein and 2 μL of the reservoir solution (30 mM magnesium acetate, 100 mM morpholino-ethane-sulphonic acid (pH 7.2) and 10% MPD), X-ray diffraction data to 2.9 Å for the yeast 20S proteasome:syringolin A and to 2.7 Å for the 20S proteasome:glidobactin A-complex were collected using synchrotron radiation with λ=1.05 Å on the BW6-beamline at DESY/Hamburg/Germany and with λ=1.0 Å on the […] at SLS/Villingen/Switzerland, respectively. Crystals were soaked in cryoprotecting buffer (30% MPD, 20 mM magnesium acetate, 100 mM morpholino-ethane-sulfonic acid pH 6.9) and frozen in a stream of liquid nitrogen gas at 90 K (Oxford Cryo Systems). X-ray intensities were evaluated by using the DENZO program package (Otwinowski and Minor. 1997. Methods Enzymol 276:307-326) and data reduction was performed with CCP4 (Potterton et al. 2003. Acta Crystallogr. D Biol. Crystallogr. 59:1131-1137). The space group belongs to P21 with cell dimensions of about a=134 Å, b=302 Å, c=144 Å and β=112° (Table 1). The anisotropy of diffraction was corrected by an overall anisotropic temperature factor by comparing observed and calculated structure amplitudes using the program CNS (Brünger et al. 1998. Acta Crystallogr. D Biol. Crystallogr. 54: 905-921, which is incorporated herein by reference in its entirety). […]

[2] = biological target: T2, proteasome activity in SK-N-SH neuroblastoma cells (Homo sapiens, UniProt P28074); assay: Proteasome-Glo cell-based luminescent assay
T2 construct: endogenous in cells; host or cells: SK-N-SH
T2 sequence (P28074 60-263): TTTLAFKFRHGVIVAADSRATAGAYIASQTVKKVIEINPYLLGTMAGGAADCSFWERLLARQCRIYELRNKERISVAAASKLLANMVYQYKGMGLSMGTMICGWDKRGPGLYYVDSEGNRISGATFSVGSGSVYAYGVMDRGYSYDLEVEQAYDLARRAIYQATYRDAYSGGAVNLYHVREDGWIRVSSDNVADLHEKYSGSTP
Procedure: Syringolin A was tested as a proteasome inhibitor in vivo in cultured mammalian cancer cells. Inhibition of proteasome activity in human SK-N-SH neuroblastoma cells was measured using the Proteasome-Glo™ cell-based luminescent assay (Promega) in solid white 96-well microtiter cell culture plates. Ten μl of syringolin A (at various concentrations) was added to each well containing SK-N-SH cells (plated at a concentration of 1.0×10^5 cells/ml in 90 μl well volumes 24 hours prior) and a negative control and media only control were included. Cells were incubated with 1-100 μM syringolin A for 2 hours or 24 hours, and then equilibrated to room temperature for 15 minutes before 100 μl of Proteasome-Glo reagent (containing bioluminescent substrate Suc-LLVY-aminoluciferin) was added to the cells. Luminescence (indicated as relative luminescence units [RLU]) was read after 15-30 minutes on a Dynex MLX Luminometer.
To trace the kinetics of proteasome inhibition in the presence of syringolin, the same experiment was performed, but in this case, 100 μl of Proteasome-Glo reagent was added to cells first, followed by the addition of syringolin A at various concentrations, and the proteasome activity was measured over time.
The cell culture-based proteasome inhibition assay was performed as previously described (Groll et al. 2008. Nature 452:755-758, which is incorporated herein by reference in its entirety). Briefly, wells of white-walled 96-well microtiter cell culture plates were seeded at a density of 1×10^4 cells/well (SK-N-SH) or 5×10^3 cells/well (SKOV3) in 90 μl. After 24 hours, 10 μl GlbA or SylA were added at increasing concentrations (0-100 μM) and incubated for 2 hours. […] Cell Death Differ 9:1017-1025; Meng, et al. 1999. PNAS 96:10403-10408, each of which is incorporated herein by reference in its entirety) were used as positive and negative controls, respectively. Microtiter plates were then equilibrated to room temperature for 15 min before adding 100 μl of proteasome Glo™ reagent (containing bioluminescent substrate Suc-LLVY-aminoluciferin) per well. Luminescence was measured on a Dynex MLX luminometer, according to the manufacturer's instructions (Promega).

SMILES	binding mode at proteasome active sites [1]	proteasome activity in cells ([2]; 2 hours incubation)	kinetics of proteasome inhibition in cells ([2]; reagent added first, activity measured over time)	binding to the caspase-like active site [1]	IC50 ([2]; 2 hours, read-out: IC50 of proteasomal activity)	potency of GlbA relative to SylA ([2]; ratio of IC50)
CC(C)[C@H](NC(=O)N[C@H](C(=O)N[C@H]1/C=C/CCNC(=O)/C=C/[C@H](C(C)C)NC1=O)C(C)C)C(=O)O [syringolin A]	covalently binds to the hydroxy group of the active site N-terminal threonine	dose-dependent decrease of proteasome activity	inhibited proteasome activity in a time and dose-dependent manner in the micromolar range	–	–	–
CCCCCCC/C=C/C=C/C(=O)N[C@H](C(=O)N[C@H]1C[C@@H](O)CCNC(=O)/C=C/[C@H](C)NC1=O)[C@@H](C)O [glidobactin A]	same mechanism of inactivation	–	–	did not bind	55 nM	approximately 26 fold
